{"source": "PubChem BioAssay AID1845211", "about": "(Molecular Pharmacology Branch, DTP, NCI, 2023)", "test_system": "NCI-H322M multicellular tumor spheroids, viability (% test/control)", "assay": "Anticancer human tumor NCI-H322M cell line growth inhibition;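 as to viability, T/C: spheroids exposed to compound for seven days before readout; 100% = DMSO vehicle control wells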", "details": "for viability, T/C: stronger effect = lower value", "source_text": "Multicellular complex tumor spheroid response to DNA repair inhibitors in combination with DNA-damaging drugs\nThis study explores the anticancer activities of DNA-damaging drugs and inhibitors of DNA damage repair, both as single agents and in combinations. Complex tumor spheroids comprised of malignant cells, endothelial cells and mesenchymal stem cells served as an in vitro model for human solid tumors. This model system incorporates physiologically relevant features and patient-derived or established malignant cell lines with clinically relevant genetic alterations from many tumor types. Twenty-six patient-derived or established malignant cell lines were evaluated representing sarcoma, melanoma, small cell lung cancer (SCLC), non-small cell lung cancer (NSCLC), as well as bladder, ovarian and pancreatic cancers. The concentration ranges selected for each drug and investigational agent were based upon clinically achievable concentrations if the clinical Cmax of the agent was known.\nCompounds. The drugs and compounds olaparib (NSC753686), talazoparib (NSC767125), berzosertib (NSC777718), elimusertib (NSC800525), nedisertib (NSC802822), VX-984 (NSC792969), AZD-1390 (NSC803789), temozolomide (NSC362856), topotecan (NSC609699), trabectedin (NSC813783), staurosporine (NSC755774), and gemcitabine (NSC613327) were obtained from the National Cancer Institute (NCI) Developmental Therapeutics Program Chemical Repository. The FDA-approved anticancer drug set is available from the Developmental Therapeutics Program at https://dtp.cancer.gov/organization/dscb/obtaining/available_plates.htm. […] The stock solutions were prepared in dimethyl sulfoxide (DMSO, Sigma-Aldrich, St. Louis, MO, cat. D2650) at 400-fold the tested concentration and stored at -70 degrees C. Prior to their use, the stock solutions were diluted in fresh medium and the final DMSO concentration in the assay was 0.25% (v/v). All drugs and investigational agents were tested over a range starting from a high concentration at or near the clinical Cmax and decreasing in half-log increments. If the clinical Cmax for an agent had not been determined, the highest concentration tested was 10 microM.\nCell Lines. The patient-derived cancer cell (PDC) lines: 156681-154-R-J1-PDC, 283228-195-R-J1-PDC, 287954-098-R-J1-PDC, 292921-168-R-J2-PDC, 349418-098-R-PDC, 425362-245-T-J1-PDC, 556581-035-R-J1-PDC, and BL0293-F563-PDC were received from the NCI Patient-Derived Models Repository (PDMR, https://pdmr.cancer.gov). The established cell lines HS-SY-2 (RRID:CVCL_8719), MPNST, and SYO-1 (RRID:CVCL_7146) were obtained from the Sloan Kettering Institute. The alveolar soft parts sarcoma cell line ASPS-1 (RRID:CVCL_S738) was established at the NCI and grown from internal seed stocks. The following established cell lines were purchased from the American Type Culture Collection (ATCC, Manassas, VA): G-401 (ATCC, cat. CRL-1441, RRID:CVCL_0270), SW982 (ATCC, cat. HTB-93, RRID:CVCL_1734), VA-ES-BJ (ATCC, cat. CRL-2138, RRID:CVCL_1785), NCI-H719 (ATCC, cat. CRL-5837, RRID:CVCL_1582), NCI-H196 (ATCC, cat. CRL-5823, RRID:CVCL_1509), NCI-H841 (ATCC, cat. CRL-5845, RRID:CVCL_1595), NCI-H1618 (ATCC, cat. CRL-5879, RRID:CVCL_1480), NCI-H1876 (ATCC, cat. CRL-5902, RRID:CVCL_1503), DMS 114 (ATCC, cat. CRL-2066; RRID:CVCL_1174), NCI-H211 (ATCC, cat. CRL-5824; RRID:CVCL_1529), and SW 1271 (ATCC, cat. CRL-2177, RRID:CVCL_1716). The small cell lung cancer cell line COR-L88 was purchased from Sigma-Aldrich (cat. 92031917-1VL, RRID:CVCL_1141). The non-small cell lung cancer cell lines NCI-H226 (RRID:CVCL_1544) and NCI-H322M (RRID:CVCL_1557) were established at the NCI and grown from internal seed stocks. Pooled donor human umbilical vein endothelial cells (HUVEC, Lonza, cat. CC-2519) and human mesenchymal stem cells (hMSC, Lonza, cat. PT-2501) were purchased from Lonza (Walkersville, MD).\nCell Culture. All cells were maintained in an incubator at 37 degrees C and 5% CO2 with 95% humidity. […]", "note": "“And” between values parts separate entries of the source, which are not always exact repeats. Equal values may be shown once."}
{"smiles": "Cc1sc2c(c1C)C(c1ccc(Cl)cc1)=NC(CC(=O)Nc1ccc(O)cc1)c1nnc(C)n1-2", "note": "(configuration not stated) + CC[C@@]1(O)C(=O)OCc2c1cc1n(c2=O)Cc2cc3c(CN(C)C)c(O)ccc3nc2-1", "values": [{"measurement": "IC50", "setting": "curve of first compound, second compound 0.003 µM", "result": "> 3", "unit": "µM"}, {"measurement": "IC50", "setting": "curve of first compound, second compound 0.00949 µM", "result": "> 3", "unit": "µM"}, {"measurement": "IC50", "setting": "curve of first compound, second compound 0.03 µM", "result": "> 3", "unit": "µM"}, {"measurement": "IC50", "setting": "curve of first compound, second compound 0.0949 µM", "result": "> 3", "unit": "µM"}, {"measurement": "IC50", "setting": "curve of first compound, second compound 0.3 µM", "result": "> 3", "unit": "µM"}, {"measurement": "viability, T/C", "setting": "second compound 0.003 µM, first compound 0.00949 µM", "result": 105, "unit": "%"}, {"measurement": "viability, T/C", "setting": "second compound 0.003 µM, first compound 0.03 µM", "result": 139, "unit": "%"}, {"measurement": "viability, T/C", "setting": "second compound 0.003 µM, first compound 0.0949 µM", "result": 132, "unit": "%"}, {"measurement": "viability, T/C", "setting": "second compound 0.003 µM, first compound 0.3 µM", "result": 134, "unit": "%"}, {"measurement": "viability, T/C", "setting": "second compound 0.003 µM, first compound 0.949 µM", "result": 95.3, "unit": "%"}, {"measurement": "viability, T/C", "setting": "second compound 0.003 µM, first compound 3 µM", "result": 76.2, "unit": "%"}, {"measurement": "viability, T/C", "setting": "second compound 0.00949 µM, first compound 0.00949 µM", "result": 106, "unit": "%"}, {"measurement": "viability, T/C", "setting": "second compound 0.00949 µM, first compound 0.03 µM", "result": 112, "unit": "%"}, {"measurement": "viability, T/C", "setting": "second compound 0.00949 µM, first compound 0.0949 µM", "result": 140, "unit": "%"}, {"measurement": "viability, T/C", "setting": "second compound 0.00949 µM, first compound 0.3 µM", "result": 118, "unit": "%"}, {"measurement": "viability, T/C", "setting": "second compound 0.00949 µM, first compound 0.949 µM", "result": 79, "unit": "%"}, {"measurement": "viability, T/C", "setting": "second compound 0.00949 µM, first compound 3 µM", "result": 77.2, "unit": "%"}, {"measurement": "viability, T/C", "setting": "second compound 0.03 µM, first compound 0.00949 µM", "result": 107, "unit": "%"}, {"measurement": "viability, T/C", "setting": "second compound 0.03 µM, first compound 0.03 µM", "result": 127, "unit": "%"}, {"measurement": "viability, T/C", "setting": "second compound 0.03 µM, first compound 0.0949 µM", "result": 126, "unit": "%"}, {"measurement": "viability, T/C", "setting": "second compound 0.03 µM, first compound 0.3 µM", "result": 103, "unit": "%"}, {"measurement": "viability, T/C", "setting": "second compound 0.03 µM, first compound 0.949 µM", "result": 82.2, "unit": "%"}, {"measurement": "viability, T/C", "setting": "second compound 0.03 µM, first compound 3 µM", "result": 73.7, "unit": "%"}, {"measurement": "viability, T/C", "setting": "second compound 0.0949 µM, first compound 0.00949 µM", "result": 90.7, "unit": "%"}, {"measurement": "viability, T/C", "setting": "second compound 0.0949 µM, first compound 0.03 µM", "result": 99.1, "unit": "%"}, {"measurement": "viability, T/C", "setting": "second compound 0.0949 µM, first compound 0.0949 µM", "result": 112, "unit": "%"}, {"measurement": "viability, T/C", "setting": "second compound 0.0949 µM, first compound 0.3 µM", "result": 89.2, "unit": "%"}, {"measurement": "viability, T/C", "setting": "second compound 0.0949 µM, first compound 0.949 µM", "result": 79.8, "unit": "%"}, {"measurement": "viability, T/C", "setting": "second compound 0.0949 µM, first compound 3 µM", "result": 64.4, "unit": "%"}, {"measurement": "viability, T/C", "setting": "second compound 0.3 µM, first compound 0.00949 µM", "result": 74.5, "unit": "%"}, {"measurement": "viability, T/C", "setting": "second compound 0.3 µM, first compound 0.03 µM", "result": 73.5, "unit": "%"}, {"measurement": "viability, T/C", "setting": "second compound 0.3 µM, first compound 0.0949 µM", "result": 90.2, "unit": "%"}, {"measurement": "viability, T/C", "setting": "second compound 0.3 µM, first compound 0.3 µM", "result": 80.5, "unit": "%"}, {"measurement": "viability, T/C", "setting": "second compound 0.3 µM, first compound 0.949 µM", "result": 71, "unit": "%"}, {"measurement": "viability, T/C", "setting": "second compound 0.3 µM, first compound 3 µM", "result": 58.1, "unit": "%"}]}
{"smiles": "Cn1ncnc1[C@H]1c2n[nH]c(=O)c3cc(F)cc(c23)N[C@@H]1c1ccc(F)cc1", "values": [{"measurement": "viability, T/C", "setting": "compound 0.00949 µM", "result": "90.1% and 93.2% and 85.8%"}, {"measurement": "viability, T/C", "setting": "compound 0.03 µM", "result": "88.6% and 91.6% and 90.2%"}, {"measurement": "viability, T/C", "setting": "compound 0.0949 µM", "result": "79.9% and 77.7% and 81%"}, {"measurement": "viability, T/C", "setting": "compound 0.3 µM", "result": "95.3% and 83.4% and 83%"}, {"measurement": "viability, T/C", "setting": "compound 0.949 µM", "result": "81.9% and 79.7% and 75.5%"}, {"measurement": "viability, T/C", "setting": "compound 3 µM", "result": "70% and 66.2% and 68.7%"}, {"measurement": "IC50", "setting": "curve of compound", "result": "> 3", "unit": "µM"}]}
